From patent publication US20110166123A1, “NOVEL COMPOSITIONS AND METHODS OF USE” (priority 2008, published 2011) come the findings set out here.

The structures appear in SMILES notation.

One test has as its system human immunodeficiency virus type 1 (HIV-1). In words: microbe, parasite or virus in culture. It counts as cell-based. The following applies: Human immunodeficiency virus 1, HeLa, 48 h, HIV-1 luciferase reporter, HeLa cells, 48 hours after infection. (Reporter assays use an easily measured gene product as a stand-in for the process of interest.)
Take `CC(C)[C@@H](CO)n1cc(C(=O)O)c(=O)c2nc(Cc3cccc(Cl)c3F)ccc21` [Example 8A, 6-(3-Chloro-2-fluoro-benzyl)-1-((S)-1-hydroxymethyl-2-methyl-propyl)-4-oxo-1,4-dihydro-[1,5]naphthyridine-3-carboxylic acid]: the EC50 is more than 100 nM. Same read-out and setting: under `CC(C)[C@@H](CO)n1cc(C(=O)O)c(=O)c2nc(Cc3ccc(F)c(F)c3)ccc21` [Example 8B, 6-(3,4-Difluoro-benzyl)-1-((S)-1-hydroxymethyl-2-methyl-propyl)-4-oxo-1,4-dihydro-[1.5]naphthyridine-3-carboxylic acid] stands more than 100 nM; under `CC(C)[C@@H](CO)n1cc(C(=O)O)c(=O)c2nc(Cc3cccc(Cl)c3)ccc21` [Example 8C, 6-(3-Chloro-benzyl)-1-((S)-1-hydroxymethyl-2-methyl-propyl)-4-oxo-1,4-dihydro-[1,5]naphthyridine-3-carboxylic acid], more than 100 nM; under `COc1cc2c(nc1Cc1cccc(Cl)c1F)c(=O)c(C(=O)O)cn2[C@H](CO)C(C)C` [Example 8D, 6-(3-Chloro-2-fluoro-benzyl)-1-((S)-1-hydroxymethyl-2-methyl-propyl)-7-methoxy-4-oxo-1,4-dihydro-[1.5]naphthyridine-3-carboxylic acid], more than 100 nM. For the compound `O=C(O)c1c[nH]c2cnc(Cc3cccc(Cl)c3)nc2c1=O` [Example 10A, 2-(3-chlorobenzyl)-8-oxo-5,8-dihydropyrido[3,2-d]pyrimidine-7-carboxylic acid], the 50% effective concentration (EC50) was more than 100 nM. In turn, `CC(C)[C@@H](CO)n1cc(C(=O)O)c(=O)c2nc(Cc3cccc(Cl)c3F)c(O)nc21` [Example 11A, (S)-2-(3-chloro-2-fluorobenzyl)-3-hydroxy-5-(1-hydroxy-3-methylbutan-2-yl)-8-oxo-5,8-dihydropyrido[2,3-b]pyrazine-7-carboxylic acid] registered an EC50 of more than 100 nM. Still for that read-out and setting: under `COc1nc2c(cc1CNc1c(F)cc(F)cc1F)c(=O)c(C(=O)O)cn2[C@H](CO)C(C)C` [Example 12A, (S)-1-(1-hydroxy-3-methylbutan-2-yl)-7-methoxy-4-oxo-6-((2,4,6-trifluorophenylamino)methyl)-1,4-dihydro-1,8-naphthyridine-3-carboxylic acid] stands more than 100 nM. Compound `COc1nc2c(cc1CNc1ccc(F)cc1F)c(=O)c(C(=O)O)cn2[C@H](CO)C(C)C` [Example 12B] registered an EC50 of more than 100 nM. The compound `COc1nc2c(cc1CNc1ccc(F)cc1)c(=O)c(C(=O)O)cn2[C@H](CO)C(C)C` [Example 12D] gave an EC50 of more than 100 nM. Compound `COc1nc2c(cc1CNc1cccc3c1CCCC3)c(=O)c(C(=O)O)cn2[C@H](CO)C(C)C` [Example 12E] registered an EC50 of more than 100 nM.

On to `COc1nc2c(cc1CNC1CCCc3ccccc31)c(=O)c(C(=O)O)cn2[C@H](CO)C(C)C` (stereo partly shown) [Example 12F], for which the EC50 is more than 100 nM.

`COc1nc2c(cc1CNCc1c(F)cc(F)cc1F)c(=O)c(C(=O)O)cn2[C@H](CO)C(C)C` [Example 12G] registered an EC50 of more than 100 nM. Same read-out and setting: under `COc1nc2c(cc1CN1CCc3ccccc3C1)c(=O)c(C(=O)O)cn2[C@H](CO)C(C)C` [Example 12H] stands more than 100 nM. Still for that read-out and setting: for `COc1cc2c(cc1CNc1ccc(F)cc1)c(=O)c(C(=O)O)cn2[C@H](CO)C(C)C` [Example 13A, (S)-6-((4-fluorophenylamino)methyl)-1-(1-hydroxy-3-methylbutan-2-yl)-7-methoxy-4-oxo-1,4-dihydroquinoline-3-carboxylic acid] the value was more than 100 nM. On the same count and under the same terms, for `COc1nc2c(cc1COc1c(F)cc(F)cc1F)c(=O)c(C(=O)O)cn2[C@H](CO)C(C)C` [Example 14A, (S)-1-(1-hydroxy-3-methylbutan-2-yl)-7-methoxy-4-oxo-6-((2,4,6-trifluorophenoxy)methyl)-1,4-dihydro-1,8-naphthyridine-3-carboxylic acid] the value was more than 100 nM; for `COc1nc2c(cc1COc1ccc(F)cc1F)c(=O)c(C(=O)O)cn2[C@H](CO)C(C)C` [Example 14B], more than 100 nM.

Compound `COc1cc2c(cc1COc1ccc(F)cc1)c(=O)c(C(=O)O)cn2[C@H](CO)C(C)C` [Example 15A, (S)-6-((4-fluorophenoxy)methyl)-1-(1-hydroxy-3-methylbutan-2-yl)-7-methoxy-4-oxo-1,4-dihydroquinoline-3-carboxylic acid] registered a half-maximal effective concentration (EC50) of more than 100 nM. Still for that read-out and setting: for `CC(C)[C@@H](CO)n1cc(C(=O)O)c(=O)c2cc(Nc3cccc(Cl)c3F)ncc21` [Example 16A, (S)-6-(3-chloro-2-fluorophenylamino)-1-(1-hydroxy-3-methylbutan-2-yl)-4-oxo-1,4-dihydro-1,7-naphthyridine-3-carboxylic acid] the value was more than 100 nM; for `COc1nc2c(cc1-c1ccc(F)cc1)c(=O)c(C(=O)O)cn2[C@H](CO)C(C)C` [Example 17A], more than 100 nM; for `COc1nc2c(cc1-c1ccc(Cl)c(F)c1)c(=O)c(C(=O)O)cn2[C@H](CO)C(C)C` [Example 17B], more than 100 nM. With `COc1nc2c(cc1-c1cccc(Cl)c1F)c(=O)c(C(=O)O)cn2[C@H](CO)C(C)C` [Example 17C], the concentration for a half-maximal effect (EC50) is more than 100 nM.

`COc1nc2c(cc1-c1ccc(F)c(Cl)c1)c(=O)c(C(=O)O)cn2[C@H](CO)C(C)C` [Example 17D] registered an EC50 of more than 100 nM. Compound `COc1nc2c(cc1-c1ccc(F)cc1F)c(=O)c(C(=O)O)cn2[C@H](CO)C(C)C` [Example 17E] came in with an EC50 of more than 100 nM. With `COc1nc2c(cc1-c1cccc(C#N)c1)c(=O)c(C(=O)O)cn2[C@H](CO)C(C)C` [Example 17F], the EC50 is more than 100 nM. With `COc1nc2c(cc1-c1ccncc1)c(=O)c(C(=O)O)cn2[C@H](CO)C(C)C` [Example 17G], the EC50 is more than 100 nM. In turn, `COc1ccc(-c2cc3c(=O)c(C(=O)O)cn([C@H](CO)C(C)C)c3nc2OC)cn1` [Example 17H] gave an EC50 of more than 100 nM.

For the compound `COc1nc2c(cc1-c1cccc3ccccc13)c(=O)c(C(=O)O)cn2[C@H](CO)C(C)C` [Example 17I], the EC50 is more than 100 nM. As for `COc1nc2c(cc1-c1ccc(OCc3ccccc3)c(F)c1)c(=O)c(C(=O)O)cn2[C@H](CO)C(C)C` [Example 17J], the EC50 is more than 100 nM.

`COc1nc2c(cc1-c1ccccc1OCc1ccccc1)c(=O)c(C(=O)O)cn2[C@H](CO)C(C)C` [Example 17K] showed an EC50 of more than 100 nM. Take `COc1nc2c(cc1-c1cccc(OCc3ccccc3)c1)c(=O)c(C(=O)O)cn2[C@H](CO)C(C)C` [Example 17L]: the EC50 was more than 100 nM. Consider `COc1nc2c(cc1N1CCc3cc(F)ccc3C1)c(=O)c(C(=O)O)cn2[C@H](CO)C(C)C` [Example 17M], for which the EC50 was more than 100 nM. `COc1nc2c(cc1N1CCc3ccc(F)cc3C1)c(=O)c(C(=O)O)cn2[C@H](CO)C(C)C` [Example 17N]: the EC50 was more than 100 nM. On the same count and under the same terms, under `COc1nc2c(cc1N1CCCc3ccccc31)c(=O)c(C(=O)O)cn2[C@H](CO)C(C)C` [Example 17O] stands more than 100 nM; under `COc1cc2c(cc1CCc1ccc(F)cc1F)c(=O)c(C(=O)O)cn2[C@H](CO)C(C)(C)C` [Example 18A, 6-[2-(2,4-Difluoro-phenyl)-ethyl]-1-((S)-1-hydroxymethyl-2,2-dimethyl-propyl)-7-methoxy-4-oxo-1,4-dihydro-quinoline-3-carboxylic acid], more than 100 nM; under `COc1nc2c(cc1CCc1ccc(F)cc1F)c(=O)c(C(=O)O)cn2[C@H](CO)C(C)C` [Example 19, (S)-6-(2,4-difluorophenethyl)-1-(1-hydroxy-3-methylbutan-2-yl)-7-methoxy-4-oxo-1,4-dihydro-1,8-naphthyridine-3-carboxylic acid], more than 100 nM. Still for that read-out and setting: for `COc1nc2c(cc1NCc1ccc(C)cc1)c(=O)c(C(=O)O)cn2[C@H](CO)C(C)C` [Example 20A, (S)-1-(1-hydroxy-3-methylbutan-2-yl)-7-methoxy-6-(4-methylbenzylamino)-4-oxo-1,4-dihydro-1,8-naphthyridine-3-carboxylic acid] the value was more than 100 nM. As to `COc1nc2c(cc1NCc1cccc(Cl)c1F)c(=O)c(C(=O)O)cn2[C@H](CO)C(C)C` [Example 20B, (S)-6-(3-chloro-2-fluorobenzylamino)-1-(1-hydroxy-3-methylbutan-2-yl)-7-methoxy-4-oxo-1,4-dihydro-1,8-naphthyridine-3-carboxylic acid], the EC50 was more than 100 nM. On to `COc1nc2c(cc1NCc1cccc(F)c1F)c(=O)c(C(=O)O)cn2[C@H](CO)C(C)C` [Example 20BB, (S)-6-(2,3-difluorobenzylamino)-1-(1-hydroxy-3-methylbutan-2-yl)-7-methoxy-4-oxo-1,4-dihydro-1,8-naphthyridine-3-carboxylic acid], for which the EC50 was more than 100 nM. Still for that read-out and setting: for `COc1nc2c(cc1NCc1ccc(F)cc1)c(=O)c(C(=O)O)cn2[C@H](CO)C(C)C` [Example 20C, (S)-6-(4-fluorobenzylamino)-1-(1-hydroxy-3-methylbutan-2-yl)-7-methoxy-4-oxo-1,4-dihydro-1,8-naphthyridine-3-carboxylic acid] the value was 10 to 100 nM. Same read-out and setting: under `COc1nc2c(cc1NCc1cc(F)ccc1F)c(=O)c(C(=O)O)cn2[C@H](CO)C(C)C` [Example 20CC, (S)-6-(2,5-difluorobenzylamino)-1-(1-hydroxy-3-methylbutan-2-yl)-7-methoxy-4-oxo-1,4-dihydro-1,8-naphthyridine-3-carboxylic acid] stands more than 100 nM. The same measure, in the same setting: for `COc1nc2c(cc1NCc1ccccc1F)c(=O)c(C(=O)O)cn2[C@H](CO)C(C)C` [Example 20D, (S)-6-(2-fluorobenzylamino)-1-(1-hydroxy-3-methylbutan-2-yl)-7-methoxy-4-oxo-1,4-dihydro-1,8-naphthyridine-3-carboxylic acid] the value was 10 to 100 nM. Compound `COc1nc2c(cc1NCc1cc(F)c(F)c(F)c1)c(=O)c(C(=O)O)cn2[C@H](CO)C(C)C` [Example 20DD, (S)-1-(1-hydroxy-3-methylbutan-2-yl)-7-methoxy-4-oxo-6-(3,4,5-trifluorobenzylamino)-1,4-dihydro-1,8-naphthyridine-3-carboxylic acid] returned a half-maximal effective concentration (EC50) of more than 100 nM.

Staying with this test, now noted: Human immunodeficiency virus 1, HeLa, HIV-1 luciferase reporter, HeLa cells.
As to `COc1nc2c(cc1COc1c(F)cc(F)cc1F)c(=O)c(C(=O)O)cn2[C@H](CO)C(C)C` [Example 14A, (S)-1-(1-hydroxy-3-methylbutan-2-yl)-7-methoxy-4-oxo-6-((2,4,6-trifluorophenoxy)methyl)-1,4-dihydro-1,8-naphthyridine-3-carboxylic acid], the EC50 was more than 2500 nM. The compound `COc1nc2c(cc1COc1ccc(F)cc1F)c(=O)c(C(=O)O)cn2[C@H](CO)C(C)C` [Example 14B] yielded a concentration giving a half-maximal response (EC50) of more than 2500 nM.

Staying with this test, now noted: Human immunodeficiency virus 1, read-out: Rank, rank of EC50, HIV-1 luciferase reporter.
For the compound `COc1nc2c(cc1COc1c(F)cc(F)cc1F)c(=O)c(C(=O)O)cn2[C@H](CO)C(C)C` [Example 14A, (S)-1-(1-hydroxy-3-methylbutan-2-yl)-7-methoxy-4-oxo-6-((2,4,6-trifluorophenoxy)methyl)-1,4-dihydro-1,8-naphthyridine-3-carboxylic acid], the concentration giving a half-maximal response (EC50) was more than 100 nM. In the case of `COc1nc2c(cc1COc1ccc(F)cc1F)c(=O)c(C(=O)O)cn2[C@H](CO)C(C)C` [Example 14B], the EC50 was more than 100 nM.

Broadly, the EC50 is the concentration giving half of the maximal effect.
